# Results: patent US20260078398A1, “PLANTS GENETICALLY ENGINEERED FOR INCREASED WATER USE EFFICIENCY AND CARBON INTAKE AND METHODS FOR MAKING AND USING THEM” (The Regents of the University of California, priority 2022, published 2026)
# Columns and labels:
# S-type anion channels = conditions: proposed secondary HCO3- response mechanism (ref. 10); cited from earlier work
# [1] = test system: MPK4/12, HT1 and CBC1 recombinant proteins; experiment: in vitro phosphorylation assay: NaHCO3-dependent down-regulation of HT1-mediated CBC1 phosphorylation; format: biochemical, Arabidopsis
# [2] = molecular target: T1, MPK4/12, HT1 and CBC1 recombinant proteins (Arabidopsis thaliana, UniProt Q2MHE4); experiment: as above; format: biochemical; conditions: HT1 and CBC1 only, no MPK4/MPK12; 20 mM NaHCO3, 30 min
# T1 construct: His; made in house
# T1 sequence (Q2MHE4 whole entry): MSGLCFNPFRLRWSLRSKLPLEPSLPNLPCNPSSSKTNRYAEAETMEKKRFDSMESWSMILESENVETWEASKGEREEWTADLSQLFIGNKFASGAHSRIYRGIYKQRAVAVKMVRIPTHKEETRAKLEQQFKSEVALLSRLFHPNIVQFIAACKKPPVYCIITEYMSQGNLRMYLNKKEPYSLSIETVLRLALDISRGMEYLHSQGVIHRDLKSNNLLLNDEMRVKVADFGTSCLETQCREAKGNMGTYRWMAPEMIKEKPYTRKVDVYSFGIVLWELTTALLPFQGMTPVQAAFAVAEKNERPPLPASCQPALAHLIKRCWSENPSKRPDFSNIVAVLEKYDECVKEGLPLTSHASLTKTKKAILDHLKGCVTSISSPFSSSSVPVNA
# [3] = molecular target: T2, MPK4/12, HT1 and CBC1 recombinant proteins (Arabidopsis thaliana, UniProt Q2MHE4+Q39024); experiment: as above; format: biochemical
# T2 construct: His; made in house
# T2 sequence (Q39024 whole entry): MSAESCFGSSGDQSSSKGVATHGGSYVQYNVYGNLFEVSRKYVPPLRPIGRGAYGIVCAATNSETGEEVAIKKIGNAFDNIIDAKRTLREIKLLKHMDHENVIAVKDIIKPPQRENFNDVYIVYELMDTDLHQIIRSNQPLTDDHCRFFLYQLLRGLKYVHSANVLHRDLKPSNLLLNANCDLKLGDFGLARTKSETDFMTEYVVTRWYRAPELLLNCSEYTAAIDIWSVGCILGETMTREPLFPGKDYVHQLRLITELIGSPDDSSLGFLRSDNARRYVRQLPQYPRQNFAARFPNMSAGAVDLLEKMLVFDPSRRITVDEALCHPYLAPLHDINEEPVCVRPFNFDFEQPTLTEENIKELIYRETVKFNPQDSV
# T2 sequence (Q2MHE4 whole entry): as the sequence (Q2MHE4 whole entry) above
# MPK4 and HT1 = molecular target: T3, MPK4 and HT1 (Arabidopsis thaliana, UniProt Q2MHE4+Q39024); experiment: in vitro pull-down assay, His-HT1 with GST-MPK4; format: binding; conditions: 20 mM NaHCO3 in all buffers
# T3 construct: made in house
# T3 sequence (Q39024 whole entry): as the sequence (Q39024 whole entry) above
# T3 sequence (Q2MHE4 whole entry): as the sequence (Q2MHE4 whole entry) above
smiles,measurement,setting,value
O=C(O)O [NaHCO3],modulation of activity of S-type anion channels by HCO3-,S-type anion channels,~20%
same,effect of NaHCO3 on CBC1 and histone phosphorylation,"[1]; MPK4 or MPK12 added to HT1 and CBC1, 20 mM NaHCO3, 30 min",inhibited both CBC1 phosphorylation and histone phosphorylation
same,"kinase activities of CBC1, HT1 or MPK4 exposed to NaHCO3 individually","[1]; each kinase alone, 20 mM NaHCO3, 30 min",not affected
same,CBC1 activity in response to NaHCO3,"[1]; only MPK12 and CBC1 in the reaction, no HT1, 20 mM NaHCO3",not affected
same,HT1 kinase activity in response to NaHCO3,"[1]; only in the presence of MPK12, 20 mM NaHCO3",inhibited
same,effect of NaHCO3 on CBC1 phosphorylation level,[2],no clear effect
same,EC50,[3],~7.1 mM
same,effect of NaHCO3 on CBC1 phosphorylation at different pH,"[3]; MPK4 and HT1 present, high pH conditions at ≥pH 7.5 (buffers pH 6.5 to 8.5)",inhibited CBC1 phosphorylation
same,effect of HCO3- on binding between MPK4 and HT1,MPK4 and HT1,greatly enhanced the binding
